Assay results reported in patent publication US20260374754A1, “N-((ISOQUINOLIN-6-YL)METHYL)-1H-PYRAZOLE-4-CARBOXAMIDE DERIVATIVES AS PLASMA KALLIKREIN INHIBITORS FOR THE TREATMENT OF HEREDITARY ANGIODEMA” (Takeda Pharmaceutical Company Limited, priority 2022, published 2026).
Like-named read-outs stand apart in the source and are kept apart here.

Target: human activated kallikrein enzyme (Homo sapiens, UniProt P03952)
Test: Inhibition of human activated plasma kallikrein, fluorogenic PFR-AMC substrate, 500 pM enzyme format
Assay type: biochemical
Conditions: 300 μM PFR-AMC, 30 min preincubation, 10 min room temperature, pH 7.5
Outline: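 500 pM activated kallikrein preincubated 30 min at room temperature with inhibitors in pH 7.5 Tris/EDTA/NaCl buffer with PEG-400 and Triton X-100. Reaction started with 300 μM PFR-AMC, run 10 min at room temperature; AMC fluorescence read at ex 380/em 460 nm.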

[1] = 500 pM activated kallikrein, read-out: Primary Dose Response Assay: Average EC50

Chain of human activated kallikrein enzyme (P03952 391-638 limits assumed): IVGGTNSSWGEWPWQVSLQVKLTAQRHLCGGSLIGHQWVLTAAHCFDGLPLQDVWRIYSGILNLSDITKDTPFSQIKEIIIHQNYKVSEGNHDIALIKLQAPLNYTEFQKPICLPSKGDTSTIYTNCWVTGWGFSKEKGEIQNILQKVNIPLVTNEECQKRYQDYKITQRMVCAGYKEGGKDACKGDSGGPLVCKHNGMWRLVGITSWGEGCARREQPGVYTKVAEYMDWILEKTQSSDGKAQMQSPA
Chain of human activated kallikrein enzyme (P03952 20-390 partner limits assumed): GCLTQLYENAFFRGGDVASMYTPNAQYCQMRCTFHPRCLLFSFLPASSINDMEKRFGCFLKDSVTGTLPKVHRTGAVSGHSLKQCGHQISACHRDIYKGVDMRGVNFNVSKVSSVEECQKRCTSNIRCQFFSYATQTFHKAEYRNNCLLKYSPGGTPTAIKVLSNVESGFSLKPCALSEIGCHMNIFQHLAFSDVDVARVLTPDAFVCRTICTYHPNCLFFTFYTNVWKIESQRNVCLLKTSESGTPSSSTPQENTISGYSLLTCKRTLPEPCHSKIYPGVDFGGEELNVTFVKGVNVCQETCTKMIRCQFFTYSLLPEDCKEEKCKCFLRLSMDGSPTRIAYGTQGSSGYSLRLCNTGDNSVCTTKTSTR

Cc1cc2c(N)nccc2c(C)c1CNC(=O)c1cnn(Cc2ccc(CC(=O)N3C[C@@H]4[C@H](C3)[C@@H]4C(=O)O)cc2)c1 [Example 210, (1R,5S,6s)-3-(2-(4-((4-(((1-amino-5,7-dimethylisoquinolin-6-yl)methyl)carbamoyl)-1H-pyrazol-1-yl)methyl)phenyl)acetyl)-3-azabicyclo[3.1.0]hexane-6-carboxylic acid] gave an EC50 [1] of 1 to 10 nM.
For Cc1cc2c(N)nccc2c(C)c1CNc1cc(OCc2ccc(Cc3cccn(C)c3=O)cc2)cnn1 [Example 440, 3-(4-(((6-(((1-amino-5,7-dimethylisoquinolin-6-yl)methyl)amino)pyridazin-4-yl)oxy)methyl)benzyl)-1-methylpyridin-2(1H)-one], the EC50 [1] was under 1 nM.
Cc1cc2c(N)nccc2c(C)c1CNC(=O)c1cn(C(C)c2ccc3ncc(Cl)cc3c2)nn1 (stereo not shown) [Example 200, N-((1-amino-5,7-dimethylisoquinolin-6-yl)methyl)-1-(1-(3-chloroquinolin-6-yl)ethyl)-1H-1,2,3-triazole-4-carboxamide] showed an EC50 [1] of 1 to 10 nM.
In the case of Cc1cc2c(N)nccc2c(C)c1CNc1cc(OC(C)c2ccc(Cn3cccn3)cc2)cnn1 (stereo not shown) [Example 275, 6-(((5-(1-(4-((1H-pyrazol-1-yl)methyl)phenyl)ethoxy)pyridazin-3-yl)amino)methyl)-5,7-dimethylisoquinolin-1-amine], the EC50 [1] is reported as under 1 nM.
Work on Cc1cc2c(N)nccc2c(C)c1CNc1cc(N(C)Cc2ccc3ncccc3c2)cnn1 [Example 428, N^3-((1-amino-5,7-dimethylisoquinolin-6-yl)methyl)-N^5-methyl-N^5-(quinolin-6-ylmethyl)pyridazine-3,5-diamine] yielded an EC50 [1] of 1 to 10 nM.
Cc1cc2c(N)nccc2c(C)c1CNc1ncnc(NCc2ccc(Cn3cccn3)cc2)c1F [Example 234, N4-(4-((1H-pyrazol-1-yl)methyl)benzyl)-N6-((1-amino-5,7-dimethylisoquinolin-6-yl)methyl)-5-fluoropyrimidine-4,6-diamine] gave an EC50 [1] of 10 to 100 nM.
Compound Cc1ccc2cnc(Cn3cc(C(=O)NCc4c(C)cc5c(N)nccc5c4C)cn3)cc2c1 [Example 1, N-((1-amino-5,7-dimethylisoquinolin-6-yl)methyl)-1-((6-methylisoquinolin-3-yl)methyl)-1H-pyrazole-4-carboxamide] has an EC50 [1] of under 1 nM.
Work on Cc1cc2c(N)nccc2c(C)c1CNc1cc(OCc2ccc(-n3ccccc3=O)cc2)ncn1 [Example 296, 1-(4-(((6-(((1-amino-5,7-dimethylisoquinolin-6-yl)methyl)amino)pyrimidin-4-yl)oxy)methyl)phenyl)pyridin-2(1H)-one] yielded an EC50 [1] of 10 to 100 nM.
Compound Cc1cc2c(N)nccc2c(C)c1CNC(=O)c1cnn(Cc2ccc3cnn(C)c3c2)c1 [Example 59, N-((1-amino-5,7-dimethylisoquinolin-6-yl)methyl)-1-((1-methyl-1H-indazol-6-yl)methyl)-1H-pyrazole-4-carboxamide] has an EC50 [1] of 1 to 10 nM.
Cc1cc2c(N)nccc2c(C)c1CNC(=O)c1cnn(Cc2nc3ccccc3o2)c1 [Example 85, N-((1-amino-5,7-dimethylisoquinolin-6-yl)methyl)-1-(benzo[d]oxazol-2-ylmethyl)-1H-pyrazole-4-carboxamide] gave an EC50 [1] of 10 to 100 nM.
Work on Cc1cc2c(N)nccc2c(C)c1CNC(=O)c1cnn(Cc2ccc(CC(=O)N(C)C)c(Cl)c2)c1 [Example 151, N-((1-amino-5,7-dimethylisoquinolin-6-yl)methyl)-1-(3-chloro-4-(2-(dimethylamino)-2-oxoethyl)benzyl)-1H-pyrazole-4-carboxamide] yielded an EC50 [1] of under 1 nM.
In the case of Cc1cc2c(N)nccc2c(C)c1CNc1ncnc2c1nc(Cc1ccc3ncc(Cl)cc3c1)n2C [Example 539, 6-(((8-((3-chloroquinolin-6-yl)methyl)-9-methyl-9H-purin-6-yl)amino)methyl)-5,7-dimethylisoquinolin-1-amine], the EC50 [1] is reported as 100 to 1000 nM.
Compound Cc1cc2c(N)nccc2c(C)c1CNc1cc(C(F)(F)c2cn3cc(C4CC4)ccc3n2)ncn1 [Example 404, 6-(((6-((6-cyclopropylimidazo[1,2-a]pyridin-2-yl)difluoromethyl)pyrimidin-4-yl)amino)methyl)-5,7-dimethylisoquinolin-1-amine] has an EC50 [1] of 10 to 100 nM.
With COCc1nn(Cc2cnc(N3CCCC3)nc2)cc1C(=O)NCc1c(C)cc2c(N)nccc2c1C [Example 162, N-((1-amino-5,7-dimethylisoquinolin-6-yl)methyl)-3-(methoxymethyl)-1-((2-(pyrrolidin-1-y1)pyrimidin-5-yl)methyl)-1H-pyrazole-4-carboxamide] the EC50 [1] was under 1 nM.
Cc1cc2c(N)nccc2c(C)c1CNc1nccc2cn(Cc3cn4cc(C5CC5)ccc4n3)nc12 [Example 271, 6-(((2-((6-cyclopropylimidazo[1,2-a]pyridin-2-yl)methyl)-2H-pyrazolo[3,4-c]pyridin-7-yl)amino)methyl)-5,7-dimethylisoquinolin-1-amine] was tested, and the EC50 [1] was under 1 nM.
Compound Cc1cc2c(N)nccc2c(C)c1CNC(=O)c1cnn(Cc2cnccn2)c1 [Example 86, N-((1-amino-5,7-dimethylisoquinolin-6-yl)methyl)-1-(pyrazin-2-ylmethyl)-1H-pyrazole-4-carboxamide] has an EC50 [1] of 100 to 1000 nM.
Cc1nnc(Cc2ccc(CNc3cc(NCc4c(C)cc5c(N)nccc5c4C)ncn3)cc2)s1 [Example 343, N^4-((1-amino-5,7-dimethylisoquinolin-6-yl)methyl)-N^6-(4-((5-methyl-1,3,4-thiadiazol-2-yl)methyl)benzyl)pyrimidine-4,6-diamine] showed an EC50 [1] of over 1000 nM.
In the case of Cc1ccc2nc(C(C)n3cc(C(=O)NCc4c(C)cc5c(N)nccc5c4C)cn3)cn2c1 (single isomer, unassigned) [Example 12, (S*)-N-((1-amino-5,7-dimethylisoquinolin-6-yl)methyl)-1-(1-(6-methylimidazo[1,2-a]pyridin-2-yl)ethyl)-1H-pyrazole-4-carboxamide], the EC50 [1] is reported as under 1 nM.
In the case of CCOC(=O)CCc1nc(NCc2c(C)cc3c(N)nccc3c2C)cc(OCc2cn3cc(C4CC4)cnc3n2)n1 [Example 291, ethyl 3-(4-(((1-amino-5,7-dimethylisoquinolin-6-yl)methyl)amino)-6-((6-cyclopropylimidazo[1,2-a]pyrimidin-2-yl)methoxy)pyrimidin-2-yl)propanoate], the EC50 [1] is reported as 1 to 10 nM.
With Cc1cc2c(N)nccc2c(C)c1CNc1cc(OCc2ccc3ncccc3c2)cnn1 [Example 409, 5,7-dimethyl-6-(((5-(quinolin-6-ylmethoxy)pyridazin-3-yl)amino)methyl)isoquinolin-1-amine] the EC50 [1] was 1 to 10 nM.
Cc1cc2c(N)nccc2c(C)c1CNC(=O)c1cn(Cc2cn3cc(C4CC4)ccc3n2)c2cccnc12 [Example I-485, N-((1-amino-5,7-dimethylisoquinolin-6-yl)methyl)-1-((6-cyclopropylimidazo[1,2-a]pyridin-2-yl)methyl)-1H-pyrrolo[3,2-b]pyridine-3-carboxamide] showed an EC50 (Primary Dose Response Assay: Average EC50, 500 pM activated kallikrein) of 1 to 10 nM.
Work on Cc1cc2c(N)nccc2c(C)c1CNc1cc(OC(C)c2cn3nc(C4CC4)ccc3n2)ncn1 (stereo not shown) [Example 493, 6-(((6-(1-(6-cyclopropylimidazo[1,2-b]pyridazin-2-yl)ethoxy)pyrimidin-4-yl)amino)methyl)-5,7-dimethylisoquinolin-1-amine] yielded an EC50 [1] of 10 to 100 nM.
For Cc1cc2c(N)nccc2c(C)c1CNc1cc(OCc2csc(-c3ccccc3)n2)cnn1 [Example 430, 5,7-dimethyl-6-(((5-((2-phenylthiazol-4-yl)methoxy)pyridazin-3-yl)amino)methyl)isoquinolin-1-amine], the EC50 [1] was 10 to 100 nM.
With Cc1cc2c(N)nccc2c(C)c1CNC(=O)c1cnn(Cc2ccc(CC(=O)N3C[C@@H]4[C@H](C3)[C@H]4C(=O)O)cc2)c1 [Example 213, (1R,5S,6r)-3-(2-(4-((4-(((1-amino-5,7-dimethylisoquinolin-6-yl)methyl)carbamoyl)-1H-pyrazol-1-yl)methyl)phenyl)acetyl)-3-azabicyclo[3.1.0]hexane-6-carboxylic acid] the EC50 [1] was 10 to 100 nM.
Cc1cc2cc(CNc3cc(NCc4c(C)cc5c(N)nccc5c4C)ncn3)cnc2cc1C [Example 325, N^4-((1-amino-5,7-dimethylisoquinolin-6-yl)methyl)-N^6-((6,7-dimethylquinolin-3-yl)methyl)pyrimidine-4,6-diamine] gave an EC50 [1] of 1 to 10 nM.
For Cc1cc2c(N)nccc2c(C)c1CNC(=O)c1cnn(Cc2cc3cc(Br)ccc3s2)c1 [Example 51, N-((1-amino-5,7-dimethylisoquinolin-6-yl)methyl)-1-((5-bromobenzo[b]thiophen-2-yl)methyl)-1H-pyrazole-4-carboxamide], the EC50 [1] was under 1 nM.
Cc1cc2c(N)nccc2c(C)c1CNC(=O)c1cnn(Cc2cc(Cl)cc(Cl)c2)c1 [Example 37, N-((1-amino-5,7-dimethylisoquinolin-6-yl)methyl)-1-(3,5-dichlorobenzyl)-1H-pyrazole-4-carboxamide] showed an EC50 [1] of 10 to 100 nM.
Cc1cc2c(N)nccc2c(C)c1CNc1cc(OCc2cnc(N3CCCC3)nc2)ncn1 [Example 298, 5,7-dimethyl-6-(((6-((2-(pyrrolidin-1-yl)pyrimidin-5-yl)methoxy)pyrimidin-4-yl)amino)methyl)isoquinolin-1-amine] gave an EC50 [1] of 10 to 100 nM.
In the case of Cc1cc2c(N)nccc2c(C)c1CNC(=O)c1cnn(Cc2ccc3ncccc3c2)c1 [Example 60, N-((1-amino-5,7-dimethylisoquinolin-6-yl)methyl)-1-(quinolin-6-ylmethyl)-1H-pyrazole-4-carboxamide], the EC50 [1] is reported as under 1 nM.
Cc1cc2c(Nc3cc(OCc4ccc(CC(=O)N(C)C)cc4)ncn3)nccc2c(C)c1CN [Example I-467, 2-(4-(((6-((6-(aminomethyl)-5,7-dimethylisoquinolin-1-yl)amino)pyrimidin-4-yl)oxy)methyl)phenyl)-N,N-dimethylacetamide] gave an EC50 [1] of over 1000 nM.
Cc1cc2c(N)nccc2c(C)c1CNC(=O)c1cnn(Cc2ccc(N(C)C(=O)N(C)C)cc2)c1 [Example 22, N-((1-amino-5,7-dimethylisoquinolin-6-yl)methyl)-1-(4-(1,3,3-trimethylureido)benzyl)-1H-pyrazole-4-carboxamide] showed an EC50 [1] of 1 to 10 nM.
